# Experimental data published in paper PMC11575505 (Chemical Science, 2024).
# Where two headings read alike, the source gives them in different places.
# Experiments:
# Nanoluc-p110α fusion = Nanoluc-p110α fusion (Homo sapiens, UniProt P42336); assay: NanoBRET tracer displacement / diffusion assay in HEK293 cells; type: cell-based; details: for increase in cellular permeability versus BYL719: diffusion coefficients
# [1] = test system: PKB/Akt phosphorylation (Ser473) in SKOV3 cells; assay: pPKB/Akt in-cell western; type: cell-based; details: read-out: pPKB/Akt IC50, 1 h of compound exposure
# Kinetic solubility = type: physicochemical; details: for solubility at 2 h: PBS buffer, 25 °C, pH 7.4, aqueous buffer, kinetic from dmso stock
# p110α = p110α protein levels by western blot; type: cell-based; details: 1 μM for 48 h
# [2] = test system: PKB/Akt phosphorylation (Ser473) in T47D cells; assay: pPKB/Akt in-cell western; type: cell-based; details: 1 h; for prevention of PKB phosphorylation: 3 μM to 0.8 nM
# [3] = test system: PKB/Akt phosphorylation (Ser473) in MCF7 cells; assay: pPKB/Akt in-cell western; type: cell-based; details: MCF7, 1 h; for prevention of PKB phosphorylation: 3 μM to 0.8 nM
# [4] = test system: PI3K signaling (pPKB Ser473) in serum-starved MCF7 cells; assay: Receptor ligand stimulated pPKB after washout, western blot; type: cell-based; details: for inhibition at 1 µM: Homo sapiens, MCF7, 2 h
# [5] = test system: FOXO1 KTR translocation in A2058 cells; assay: FOXO1 KTR translocation; type: cell-based
# [6] = test system: FOXO1 KTR translocation in T47D cells; assay: FOXO1 KTR translocation; type: cell-based; details: for time to import of FOXO1-KTR into the nucleus: 3 μM, live cell imaging
# [7] = test system: PKB phosphorylation (Ser473) in T47D, MCF7, PC3 and A2058 cells; assay: Washout, pPKB in-cell western; type: cell-based
# [8] = test system: PKB phosphorylation (Ser473) in MDA-MB-453, T47D and MCF7 cells; assay: Washout, pPKB in-cell western; type: cell-based; details: 1 μM for 2 h then washout
# PI3Kα mutant cell lines = assay: Growth rate on intermittent exposure; type: cell-based; details: 1 μM for 4 h daily over 4 days
# PI3Kα-mutant cell lines = assay: Growth rate inhibition, panel comparison; type: cell-based; details: 72 h incubation, GR50
# [9] = Intrinsic warhead reactivity; type: physicochemical; details: 1 mM compound, 600 mM βME, 37 °C
# Sequence of Nanoluc-p110α fusion (P42336 whole entry, the tested form may be a part): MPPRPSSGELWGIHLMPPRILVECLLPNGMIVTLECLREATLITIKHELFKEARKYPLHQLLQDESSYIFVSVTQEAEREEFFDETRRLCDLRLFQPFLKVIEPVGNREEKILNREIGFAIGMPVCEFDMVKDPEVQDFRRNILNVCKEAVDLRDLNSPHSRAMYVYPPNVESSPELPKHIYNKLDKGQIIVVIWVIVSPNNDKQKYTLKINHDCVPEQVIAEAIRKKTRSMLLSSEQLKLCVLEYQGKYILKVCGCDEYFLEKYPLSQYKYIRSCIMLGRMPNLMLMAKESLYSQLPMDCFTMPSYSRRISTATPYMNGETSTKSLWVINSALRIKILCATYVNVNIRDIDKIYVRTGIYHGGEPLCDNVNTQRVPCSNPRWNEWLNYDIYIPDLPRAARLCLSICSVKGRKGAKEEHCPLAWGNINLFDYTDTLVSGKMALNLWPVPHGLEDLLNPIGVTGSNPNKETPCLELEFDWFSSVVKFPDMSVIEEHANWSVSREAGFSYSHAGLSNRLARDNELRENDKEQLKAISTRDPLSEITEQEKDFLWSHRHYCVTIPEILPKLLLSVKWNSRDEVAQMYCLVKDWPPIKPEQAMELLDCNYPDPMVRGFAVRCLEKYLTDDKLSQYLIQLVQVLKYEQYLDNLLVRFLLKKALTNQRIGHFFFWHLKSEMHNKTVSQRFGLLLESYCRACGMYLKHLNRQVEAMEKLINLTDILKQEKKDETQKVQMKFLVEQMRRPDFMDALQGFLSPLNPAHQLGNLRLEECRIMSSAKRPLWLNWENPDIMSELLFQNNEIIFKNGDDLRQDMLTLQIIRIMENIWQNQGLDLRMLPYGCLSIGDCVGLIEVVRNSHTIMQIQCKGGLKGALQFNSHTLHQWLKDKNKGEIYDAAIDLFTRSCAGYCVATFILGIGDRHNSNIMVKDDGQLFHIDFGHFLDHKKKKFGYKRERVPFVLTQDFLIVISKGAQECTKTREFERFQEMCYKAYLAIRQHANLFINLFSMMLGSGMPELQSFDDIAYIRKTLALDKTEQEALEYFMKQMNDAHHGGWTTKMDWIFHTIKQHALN
# Sequence of Nanoluc-p110α fusion (P27986 whole entry partner, the tested form may be a part): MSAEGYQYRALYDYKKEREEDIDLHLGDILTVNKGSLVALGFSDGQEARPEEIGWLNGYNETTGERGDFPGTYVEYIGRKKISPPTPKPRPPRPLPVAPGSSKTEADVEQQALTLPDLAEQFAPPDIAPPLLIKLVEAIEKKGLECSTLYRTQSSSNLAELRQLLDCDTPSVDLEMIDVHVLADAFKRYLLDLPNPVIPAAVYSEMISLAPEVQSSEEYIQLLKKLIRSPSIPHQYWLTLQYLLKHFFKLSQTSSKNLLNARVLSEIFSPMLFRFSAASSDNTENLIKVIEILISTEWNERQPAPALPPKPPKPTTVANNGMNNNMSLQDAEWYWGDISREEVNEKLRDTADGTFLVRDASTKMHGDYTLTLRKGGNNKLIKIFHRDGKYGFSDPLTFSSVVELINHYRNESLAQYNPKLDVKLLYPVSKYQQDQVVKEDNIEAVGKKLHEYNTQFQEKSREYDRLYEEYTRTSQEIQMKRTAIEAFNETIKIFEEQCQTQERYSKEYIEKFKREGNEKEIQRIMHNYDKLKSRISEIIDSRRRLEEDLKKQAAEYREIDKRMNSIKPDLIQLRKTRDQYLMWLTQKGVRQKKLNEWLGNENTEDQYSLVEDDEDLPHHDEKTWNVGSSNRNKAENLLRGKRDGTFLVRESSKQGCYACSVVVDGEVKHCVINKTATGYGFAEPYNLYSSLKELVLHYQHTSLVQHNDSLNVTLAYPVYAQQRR
smiles,measurement,setting,value
C=CC(=O)N1CCC(COCC(=O)N2CCN(c3nc(-c4cnc(N)nc4C(F)F)nc(N4CCOCC4)n3)CC2)CC1 [Compound 8],increase in cellular permeability versus BYL719,Nanoluc-p110α fusion,2- to 3 fold
same,IC50,[1],19 nM
CCC(=O)N1CCC(COCC(=O)N2CCN(c3nc(-c4cnc(N)nc4C(F)F)nc(N4CCOC[C@@H]4C)n3)CC2)CC1 [Compound 9r],time to equilibrium of BRET signal decay,"Nanoluc-p110α fusion; HEK293, 200 nM Tracer K-3",ca. 20 min
same,increase in cellular permeability versus BYL719,Nanoluc-p110α fusion,2- to 3 fold
"C=CC(=O)N1CCC[C@@H](n2nc(-c3ccc(Oc4ccccc4)cc3)c3c(N)ncnc32)C1 [Ibrutinib, reference compound]",solubility at 2 h,Kinetic solubility,10 µM
"C[C@H](Nc1ccc2c(c1)OCCn1cc(N3C(=O)OC[C@H]3C(F)F)nc1-2)C(N)=O [GDC-0077, reference compound]",depletion of p110α,p110α; HCC1954 and MDA-MB-453 cells,"prominent, indistinguishable depletion of p110α"
same,depletion of p110α,p110α; MCF7 and T47D cells,insignificant
same,solubility at 2 h,Kinetic solubility,357 µM
C=CC(=O)N1CCC(C(=O)NCC(=O)N2CCN(c3nc(-c4cnc(N)nc4C(F)F)nc(N4CCOCC4)n3)CC2)CC1 [Compound 1],solubility at 2 h,Kinetic solubility,333 µM
same,IC50,[1],86 nM
Cc1cc(C(C)Nc2ccccc2)c2nc(N3CCOCC3)cc(=O)n2c1 (centres unmarked) [TGX221],prevention of PKB phosphorylation,[2],did not prevent PKB phosphorylation
same,prevention of PKB phosphorylation,[3],did not prevent PKB phosphorylation
same,"suppression of the remaining PI3K signaling, CXCL12","[4]; MCF7, TGX221 1 μM after 9-wo",6%
same,"suppression of the remaining PI3K signaling, EGF","[4]; MCF7, TGX221 1 μM after 9-wo",2%
same,"suppression of the remaining PI3K signaling, insulin","[4]; MCF7, TGX221 1 μM after 9-wo",12%
C=CC(=O)N1CCC(CCCC(=O)N2CCN(c3nc(-c4cnc(N)nc4C(F)F)nc(N4CCOCC4)n3)CC2)CC1 [Compound 7],time to nuclear FOXO1 KTR localization,"[5]; A2058, 3 μM, live cell imaging",> 40 min
same,IC90,"[5]; Homo sapiens, A2058, 1 h, read-out: FOXO1-KTR nuclear translocation IC90",1660 nM
same,better cellular potency (lower pPKB IC50) as compared to BYL719,[2],5 fold
same,better cellular potency (lower pPKB IC50) as compared to BYL719,[3],8 fold
same,persistence of nuclear FOXO1-KTR localization after washout,[6]; 3 μM then washout,> 10 h
same,time to import of FOXO1-KTR into the nucleus,[6],< 20 min
same,IC90,"[6]; Homo sapiens, 1 h, read-out: FOXO1-KTR nuclear import IC90",50 nM
same,PI3K/PKB signaling after washout,[7]; PTEN-deficient cell lines,~50%
same,duration of pathway inhibition after washout,"[7]; T47D and MCF7 cells, 3 μM for 2 h then washout",> 18 h
same,IC50,[1],22 nM
C=CC(=O)N1CCC(COCC(=O)N2CCN(c3nc(-c4cnc(N)nc4C(F)F)nc(N4CCOC[C@@H]4C)n3)CC2)CC1 [Compound 9],depletion of p110α,p110α; HCC1954 and MDA-MB-453 cells,"prominent, indistinguishable depletion of p110α"
same,depletion of p110α,p110α; MCF7 and T47D cells,insignificant
same,duration of loss of detectable pPKB after washout,[8],up to 72 h
same,growth rate,PI3Kα mutant cell lines,≤ 0.5
same,increase in cellular permeability versus BYL719,Nanoluc-p110α fusion,2- to 3 fold
same,faster permeation into cells as compared to 7,"Nanoluc-p110α fusion; human, 4 h",ca. 2.8 ×
same,solubility at 2 h,Kinetic solubility,357 µM
same,inhibition at 1 µM,[4]; read-out: inhibition of PI3K signaling in response to CXCL12,91%
same,inhibition at 1 µM,[4]; read-out: inhibition of PI3K signaling in response to EGF,98%
same,IC50,[1],19 nM
same,more potent growth inhibition than reference compounds BYL719 and GDC-0077,PI3Kα-mutant cell lines,2- to 273 fold
same,more potent than the reversible analogue 9r,PI3Kα-mutant cell lines,6- to 70 fold
"Cc1nc(NC(=O)N2CCC[C@H]2C(N)=O)sc1-c1ccnc(C(C)(C)C(F)(F)F)c1 [BYL719, reference compound]",FOXO1-KTR nuclear translocation IC90,"[5]; A2058, 1 h incubation",completely ineffective
same,time to import of FOXO1-KTR into the nucleus,[6],< 20 min
same,FOXO1-KTR nuclear import IC90,[6]; 1 h incubation,not able to induce full nuclear translocation
same,solubility at 2 h,Kinetic solubility,49 µM
same,reactivation of PI3K/PKB signaling after removal of inhibitor,"[7]; all cell lines, 2 h incubation then washout",reactivated PI3K/PBK signaling within the first hour
CC[C@H](Nc1ncnc2[nH]cnc12)c1nc2cccc(F)c2c(=O)n1-c1ccccc1 [CAL101],prevention of PKB phosphorylation,[2],did not prevent PKB phosphorylation
same,prevention of PKB phosphorylation,[3],did not prevent PKB phosphorylation
C=CC(=O)N1CCC(C(=O)N(C)CC(=O)N2CCN(c3nc(-c4cnc(N)nc4C(F)F)nc(N4CCOCC4)n3)CC2)CC1 [Compound 2],solubility at 2 h,Kinetic solubility,383 µM
same,IC50,[1],82 nM
C=CC(=O)N1CCC(C(=O)NCCN2CCN(c3nc(-c4cnc(N)nc4C(F)F)nc(N4CCOCC4)n3)CC2)CC1 [Compound 4],k chem × 10^4,[9],~5.2 ^e M^−1 s^−1
same,IC50,[1],69 nM
"CC(C)=CC(=O)CCC(=O)N1CCN(Cc2cc3nc(-c4cccc5[nH]ncc45)nc(N4CCOCC4)c3s2)CC1 [CNX1351, reference compound]",Solubility,Kinetic solubility; kinetic solubility at pH 7.4 in PBS,10 µM
same,k chem × 10^4,[9],2.2 M^−1 s^−1
same,IC50,[1],172 nM
C=CC(=O)N1CCC(CN(C)CC(=O)N2CCN(c3nc(-c4cnc(N)nc4C(F)F)nc(N4CCOCC4)n3)CC2)CC1 [Compound 3],solubility at 2 h,Kinetic solubility,363 µM
same,IC50,[1],38 nM
